Patent US20070167488A1, “Novel therapeutic use” (Leo Pharma A/S, priority 2003, published 2007)

System: IL-2
Assay: Inhibition of IL-2 production in phytohemagglutinin-activated human PBMCs (sandwich ELISA)
Assay type: cell-based
Conditions: Homo sapiens, PBMC, 46 h, approximately 46 hours, read-out: IL-2 pIC50 (converted)
Procedure: Peripheral blood mononuclear cells (PBMCs) were isolated from human blood. The lymphocytes, a fraction of the PBMCs, were activated to secrete IL-2 using the polyclonal mitogen phytohemagglutinin. The test compounds were added in concentrations from 10^−5 to 10^−10, and the cells (10^6/ml) were incubated in microtiter wells at 37° C. for approximately 46 hours.
After 46 hours the cells were centrifuged down for 25 minutes at 1000×g and the supernatants were transferred to transferred to microtiter wells precoated with a monoclonal antibody against human IL-2. The IL-2 concentration in the supernatants was determined by a sandwich ELISA. Microtiter plates were coated (1 μg/ml) with a monoclonal antibody (R&D, UK) against human IL-2, washed 4 times, blocked with 1% casein buffer for 2 hours and washed 2 times. 100 μl sample was added to each well and incubated overnight. All samples were tested in triplicate. 100 μl IL-2 standards (R&D, UK) at a concentration range of 10000-0 pg/ml were tested in triplicate. After incubation the plates were washed and incubated with biotinylated polyclonal secondary antibody against human IL-2 (R&D, UK) for 45 minutes and thereafter washed 4 times. 100 μl enzyme conjugate, horseradish peroxidase conjugated streptavidin diluted 1:4000 (Zymed, USA), was added to all wells and incubated for 30 minutes. 100 μl OPD substrate (KEM EN TEC-DK) was added and the enzyme/substrate reaction stopped after 10 minutes at room temperature with 50 μl 1 M H2SO4. The colour development (optical density—OD) was determined at 492 nm on an ELISA reader and the background OD at 620 nm subtracted).

`Cc1ccc(/C=C2\C(=O)Nc3ccccc32)c(C)c1` was tested, and the IC50 was 631 nM.

For `O=C1Nc2ccccc2/C1=C/c1ccc(Cl)c(Cl)c1`, the IC50 was 20 nM.

Compound `O=C1Nc2ccccc2/C1=C/c1ccc(Cl)cc1` has an IC50 of 79.4 nM.

Compound `Cc1ccc(/C=C2/C(=O)Nc3ccccc32)c(C)c1` has an IC50 of 1 nM.

With `COc1ccc(/C=C2/C(=O)Nc3ccccc32)c(OC)c1` the IC50 was 2 nM.

Work on `Cc1ccc(/C=C2\C(=O)Nc3ccccc32)cc1C` yielded an IC50 of 50.1 nM.

`O=C1Nc2ccccc2/C1=C/c1ccc2ccccc2c1` gave an IC50 of 631 nM.

Compound `O=C1Nc2ccccc2/C1=C/c1cccc([N+](=O)[O-])c1` has an IC50 of 20 nM.

With `O=C1Nc2ccccc2/C1=C/c1ccccc1F` the IC50 was 63.1 nM.

Compound `Cc1cccc(/C=C2\C(=O)Nc3ccccc32)c1` has an IC50 of 631 nM.

Work on `O=C1Nc2ccccc2/C1=C\c1cccc(F)c1` yielded an IC50 of 200 nM.

`O=C1Nc2ccccc2/C1=C\c1cccc(Cl)c1` gave an IC50 of 10 nM.

With `O=C1Nc2ccccc2/C1=C\c1ccc(Cl)cc1Cl` the IC50 was 1 nM.

`O=C1Nc2ccccc2/C1=C\c1ccc(Cl)c(Cl)c1` was tested, and the IC50 was 1 nM.

`O=C1Nc2ccccc2/C1=C\c1cccc(Br)c1` gave an IC50 of 10 nM.

`O=C1Nc2ccccc2/C1=C\c1ccc(O)cc1O` showed an IC50 of 316 nM.

For `Cc1cccc(COc2ccc(/C=C3/C(=O)Nc4ccccc43)cc2)n1`, the IC50 was 398 nM.

For `COc1ccc(OC)c(/C=C2/C(=O)Nc3ccc(Cl)cc32)c1`, the IC50 was 6.31 nM.

`COc1ncc(/C=C2/C(=O)Nc3ccccc32)c(OC)n1` was tested, and the IC50 was 6.31 nM.

With `COc1cc(/C=C2/C(=O)Nc3ccccc32)ccc1O` the IC50 was 100 nM.

`O=C1Nc2ccccc2/C1=C\c1cc(-c2ccccc2)cs1` showed an IC50 of 31.6 nM.

Compound `COc1ccc(OC)c(/C=C2/C(=O)Nc3ccc(Br)cc32)c1` has an IC50 of 100 nM.

Work on `COc1ccc(OC)c(/C=C2/C(=O)Nc3c(F)cc(F)cc32)c1` yielded an IC50 of 10 nM.

Work on `COc1ccc(OC)c(/C=C2/C(=O)Nc3c(Br)cccc32)c1` yielded an IC50 of 10 nM.

`COc1ccc(OC)c(/C=C2/C(=O)Nc3cc(F)ccc32)c1` was tested, and the IC50 was 10 nM.

`COc1ccc(OC)c(/C=C2/C(=O)Nc3ccc(C(F)(F)F)cc32)c1` gave an IC50 of 631 nM.

For `COc1ccc(OC)c(/C=C2/C(=O)Nc3ccc(O)cc32)c1`, the IC50 was 200 nM.

`O=C1Nc2ccc(Cl)cc2/C1=C/c1c[nH]c2ccccc12` gave an IC50 of 10 nM.

For `CCn1c2ccccc2c2cc(/C=C3/C(=O)Nc4ccccc43)ccc21`, the IC50 was 200 nM.

With `COc1ccc(OC)c(/C=C2/C(=O)Nc3ccc(F)c(F)c32)c1` the IC50 was 20 nM.

In the case of `O=C1Nc2ccccc2/C1=C\c1cc(Cl)cc(Cl)c1O`, the IC50 is reported as 398 nM.

`CCOc1ccc(OCC)c(/C=C2/C(=O)Nc3ccccc32)c1` gave an IC50 of 631 nM.

`O=C1Nc2ccccc2/C1=C\c1cc(O)ccc1O` showed an IC50 of 100 nM.

Compound `Cc1ccc2[nH]cc(/C=C3/C(=O)Nc4ccccc43)c2c1` has an IC50 of 20 nM.

`O=C1Nc2ccccc2/C1=C\c1cc(Br)co1` gave an IC50 of 31.6 nM.

With `O=C1Nc2c(F)cc(F)cc2/C1=C/c1c[nH]c2ccccc12` the IC50 was 2 nM.

`O=C1Nc2ccc(Br)cc2/C1=C/c1c[nH]c2ccccc12` was tested, and the IC50 was 2 nM.

`COc1ccc(O)c(/C=C2/C(=O)Nc3ccccc32)c1` showed an IC50 of 316 nM.

`COc1cc(OC)c(OC)cc1/C=C1/C(=O)Nc2ccccc21` showed an IC50 of 2 nM.

With `O=C1Nc2cc(F)ccc2/C1=C/c1c[nH]c2ccccc12` the IC50 was 3.16 nM.

`O=C1Nc2cc(Br)ccc2/C1=C/c1c[nH]c2ccccc12` gave an IC50 of 3.16 nM.

`O=C1Nc2ccc(O)cc2/C1=C/c1c[nH]c2ccccc12` was tested, and the IC50 was 79.4 nM.

Work on `O=C1Nc2ccccc2/C1=C\c1c[nH]c2c(F)c(F)c(F)c(F)c12` yielded an IC50 of 2 nM.

In the case of `Cc1cc(/C=C2/C(=O)Nc3ccccc32)sc1C`, the IC50 is reported as 100 nM.

Work on `O=C1Nc2ccccc2/C1=C\c1cn(Cc2cnc(Cl)s2)c2ccccc12` yielded an IC50 of 10 nM.

With `O=C1Nc2ccccc2/C1=C/c1c[nH]c2cc(F)ccc12` the IC50 was 1 nM.

`Cc1cc(/C=C2/C(=O)Nc3ccccc32)oc1C` was tested, and the IC50 was 3.98 nM.

`O=C1Nc2c(Br)cccc2/C1=C/c1c[nH]c2ccccc12` was tested, and the IC50 was 0.2 nM.

In the case of `O=C1Nc2ccccc2/C1=C\c1cc(OC(F)(F)F)ccc1O`, the IC50 is reported as 63.1 nM.

Compound `Cc1ccc2c(/C=C3/C(=O)Nc4ccccc43)c[nH]c2c1` has an IC50 of 0.1 nM.

`Cc1cccc2c(/C=C3/C(=O)Nc4ccccc43)c[nH]c12` was tested, and the IC50 was 3.98 nM.

In the case of `Cn1c(/C=C2/C(=O)Nc3ccccc32)cc2ccccc21`, the IC50 is reported as 100 nM.

`COc1cc(/C=C2/C(=O)Nc3ccccc32)c(OCc2ccccc2)cc1OC` showed an IC50 of 794 nM.
